Data taken from ChEMBL document CHEMBL5465560, “Selectivity Literature for EUbOPEN Chemogenomic Library” (2024).

Key:
[1] = biological target: T1, Alpha-1A adrenergic receptor (Homo sapiens) (UniProt P35348); test: Selectivity interaction (Eurofins CEREP Diversity Profile (receptors and ion channels)) EUB0000279b ADRA1A; conditions: at 10 µM
T1 sequence (whole entry): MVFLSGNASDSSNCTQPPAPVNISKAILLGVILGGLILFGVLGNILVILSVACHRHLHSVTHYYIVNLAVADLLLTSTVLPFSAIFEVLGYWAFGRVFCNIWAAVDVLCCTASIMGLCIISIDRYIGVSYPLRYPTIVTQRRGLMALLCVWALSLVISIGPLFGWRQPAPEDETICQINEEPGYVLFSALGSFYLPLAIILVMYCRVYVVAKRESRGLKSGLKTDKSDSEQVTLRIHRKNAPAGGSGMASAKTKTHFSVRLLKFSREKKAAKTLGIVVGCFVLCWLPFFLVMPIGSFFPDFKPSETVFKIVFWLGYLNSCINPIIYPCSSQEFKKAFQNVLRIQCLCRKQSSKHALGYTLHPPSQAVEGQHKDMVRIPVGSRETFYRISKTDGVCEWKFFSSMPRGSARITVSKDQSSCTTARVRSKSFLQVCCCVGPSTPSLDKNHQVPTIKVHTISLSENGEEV

[2] = biological target: Phosphatidylinositol 4-phosphate 5-kinase type-1 alpha (Homo sapiens) (UniProt Q99755); test: Selectivity interaction (KinomeScan (DiscoverX)) EUB0001079a PIP5K1A; conditions: at 1 µM
[3] = biological target: Ephrin type-A receptor 7 (Homo sapiens) (UniProt Q15375); conditions: at 10 µM
[4] = biological target: Bromodomain-containing protein 4 (Homo sapiens, UniProt O60885); test: Selectivity interaction (Bromodomain panel (DSF asssay)) EUB0000270b BRD4
[5] = biological target: Serine/threonine-protein kinase 26 (Homo sapiens, UniProt Q9P289); test: Selectivity interaction (ActivX KiNativ screen (kinase selectivity in THP-1 cell lysates)) EUB0000639a STK26; assay type: subcellular; conditions: lysate, at 5 µM
[6] = biological target: T2, Protein kinase C zeta type (Homo sapiens) (UniProt Q05513); test: Selectivity interaction (Kinase panel (Invitrogen)) EUB0000639a PRKCZ; conditions: at 200 nM
T2 sequence (whole entry): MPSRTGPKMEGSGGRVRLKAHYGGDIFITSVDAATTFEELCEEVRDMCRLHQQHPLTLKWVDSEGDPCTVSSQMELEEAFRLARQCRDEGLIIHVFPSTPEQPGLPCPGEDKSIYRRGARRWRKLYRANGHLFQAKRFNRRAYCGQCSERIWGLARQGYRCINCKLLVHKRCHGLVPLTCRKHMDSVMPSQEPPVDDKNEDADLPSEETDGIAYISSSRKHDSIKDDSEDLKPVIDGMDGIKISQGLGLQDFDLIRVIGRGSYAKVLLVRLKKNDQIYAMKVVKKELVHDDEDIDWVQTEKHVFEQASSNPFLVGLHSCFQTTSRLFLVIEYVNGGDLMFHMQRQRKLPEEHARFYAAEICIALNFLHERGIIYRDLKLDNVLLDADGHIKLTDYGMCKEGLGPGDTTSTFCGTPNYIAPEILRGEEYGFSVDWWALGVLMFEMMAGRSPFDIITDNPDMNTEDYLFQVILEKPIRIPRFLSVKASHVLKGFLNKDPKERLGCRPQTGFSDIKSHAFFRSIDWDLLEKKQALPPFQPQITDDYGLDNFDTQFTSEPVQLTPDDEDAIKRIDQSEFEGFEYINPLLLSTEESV

[7] = biological target: 5'-AMP-activated protein kinase catalytic subunit alpha-2 (Homo sapiens) (UniProt P54646); test: Selectivity interaction (KinomeScan (DiscoverX)) EUB0000595a PRKAA2; conditions: at 10 µM
[8] = biological target: Serine/threonine-protein kinase SIK3 (Homo sapiens) (UniProt Q9Y2K2); test: Selectivity interaction (KinomeScan (DiscoverX)) EUB0000045b SIK3
[9] = biological target: T3, Tyrosine-protein kinase JAK3 (Homo sapiens) (UniProt P52333); test: Selectivity interaction (KinomeScan (DiscoverX)) EUB0000618a JAK3; conditions: at 10 µM
T3 sequence (whole entry): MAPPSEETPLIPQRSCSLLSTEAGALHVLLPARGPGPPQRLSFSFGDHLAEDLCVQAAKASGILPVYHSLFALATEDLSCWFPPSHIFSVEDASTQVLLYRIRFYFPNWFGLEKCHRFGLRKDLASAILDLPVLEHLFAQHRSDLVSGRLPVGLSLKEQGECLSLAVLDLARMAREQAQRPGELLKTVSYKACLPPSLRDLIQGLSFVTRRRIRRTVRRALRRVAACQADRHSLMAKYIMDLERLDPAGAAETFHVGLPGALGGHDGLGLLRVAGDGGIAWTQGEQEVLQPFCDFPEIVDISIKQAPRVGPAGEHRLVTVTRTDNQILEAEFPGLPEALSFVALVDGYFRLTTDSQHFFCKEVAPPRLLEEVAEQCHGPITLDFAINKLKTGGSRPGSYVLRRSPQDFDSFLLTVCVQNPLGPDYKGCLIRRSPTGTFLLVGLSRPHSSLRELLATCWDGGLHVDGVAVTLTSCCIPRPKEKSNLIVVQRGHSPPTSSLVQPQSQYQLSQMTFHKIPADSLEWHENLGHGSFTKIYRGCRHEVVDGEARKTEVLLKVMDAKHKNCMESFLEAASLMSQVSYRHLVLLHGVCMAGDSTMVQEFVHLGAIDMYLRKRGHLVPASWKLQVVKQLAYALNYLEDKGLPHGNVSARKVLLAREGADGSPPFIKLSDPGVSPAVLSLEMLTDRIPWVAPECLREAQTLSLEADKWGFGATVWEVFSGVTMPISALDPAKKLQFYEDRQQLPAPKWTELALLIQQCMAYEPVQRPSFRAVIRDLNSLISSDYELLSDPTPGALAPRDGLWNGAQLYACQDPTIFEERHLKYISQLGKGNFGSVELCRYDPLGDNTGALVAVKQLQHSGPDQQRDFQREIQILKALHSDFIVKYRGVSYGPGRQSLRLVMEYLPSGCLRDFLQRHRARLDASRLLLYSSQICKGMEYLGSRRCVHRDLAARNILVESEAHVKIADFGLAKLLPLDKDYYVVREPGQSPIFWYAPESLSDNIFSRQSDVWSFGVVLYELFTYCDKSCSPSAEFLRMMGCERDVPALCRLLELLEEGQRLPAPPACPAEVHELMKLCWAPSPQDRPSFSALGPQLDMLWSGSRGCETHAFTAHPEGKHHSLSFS

[10] = test system: Tyrosine-protein kinase receptor UFO (Homo sapiens), P30530 [R499C]; test: Selectivity interaction (LanthaScreen Eu Kinase Binding Assay) EUB0001632a AXL; conditions: at 10 µM
Sequence of Tyrosine-protein kinase receptor UFO (Homo sapiens), P30530 [R499C] (P30530 whole entry R499C): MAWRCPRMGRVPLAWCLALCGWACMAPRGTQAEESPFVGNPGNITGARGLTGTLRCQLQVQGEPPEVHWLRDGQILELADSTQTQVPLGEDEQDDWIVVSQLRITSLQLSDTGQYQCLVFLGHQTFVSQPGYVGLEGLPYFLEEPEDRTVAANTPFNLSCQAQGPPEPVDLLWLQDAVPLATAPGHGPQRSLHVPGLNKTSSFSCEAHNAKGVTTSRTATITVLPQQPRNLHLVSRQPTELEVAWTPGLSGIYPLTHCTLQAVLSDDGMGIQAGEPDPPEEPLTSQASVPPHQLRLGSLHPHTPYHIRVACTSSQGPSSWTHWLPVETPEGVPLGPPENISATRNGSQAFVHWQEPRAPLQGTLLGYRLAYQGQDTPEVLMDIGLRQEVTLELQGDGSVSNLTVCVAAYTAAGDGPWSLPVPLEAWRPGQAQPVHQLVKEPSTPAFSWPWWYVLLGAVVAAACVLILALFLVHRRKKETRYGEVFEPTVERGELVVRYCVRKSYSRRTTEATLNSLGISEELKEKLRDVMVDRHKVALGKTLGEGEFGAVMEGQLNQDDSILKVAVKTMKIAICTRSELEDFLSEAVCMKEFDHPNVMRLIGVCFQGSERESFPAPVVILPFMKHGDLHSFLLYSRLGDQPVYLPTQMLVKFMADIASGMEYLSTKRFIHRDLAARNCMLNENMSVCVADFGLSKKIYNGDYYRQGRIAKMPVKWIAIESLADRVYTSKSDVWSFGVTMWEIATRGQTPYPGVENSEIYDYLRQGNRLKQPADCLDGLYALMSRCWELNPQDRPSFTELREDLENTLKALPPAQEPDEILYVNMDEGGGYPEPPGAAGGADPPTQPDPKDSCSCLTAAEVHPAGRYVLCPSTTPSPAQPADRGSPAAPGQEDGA

Sequence of Serine/threonine-protein kinase SIK3 (Homo sapiens) (Q9Y2K2 whole entry, looked up): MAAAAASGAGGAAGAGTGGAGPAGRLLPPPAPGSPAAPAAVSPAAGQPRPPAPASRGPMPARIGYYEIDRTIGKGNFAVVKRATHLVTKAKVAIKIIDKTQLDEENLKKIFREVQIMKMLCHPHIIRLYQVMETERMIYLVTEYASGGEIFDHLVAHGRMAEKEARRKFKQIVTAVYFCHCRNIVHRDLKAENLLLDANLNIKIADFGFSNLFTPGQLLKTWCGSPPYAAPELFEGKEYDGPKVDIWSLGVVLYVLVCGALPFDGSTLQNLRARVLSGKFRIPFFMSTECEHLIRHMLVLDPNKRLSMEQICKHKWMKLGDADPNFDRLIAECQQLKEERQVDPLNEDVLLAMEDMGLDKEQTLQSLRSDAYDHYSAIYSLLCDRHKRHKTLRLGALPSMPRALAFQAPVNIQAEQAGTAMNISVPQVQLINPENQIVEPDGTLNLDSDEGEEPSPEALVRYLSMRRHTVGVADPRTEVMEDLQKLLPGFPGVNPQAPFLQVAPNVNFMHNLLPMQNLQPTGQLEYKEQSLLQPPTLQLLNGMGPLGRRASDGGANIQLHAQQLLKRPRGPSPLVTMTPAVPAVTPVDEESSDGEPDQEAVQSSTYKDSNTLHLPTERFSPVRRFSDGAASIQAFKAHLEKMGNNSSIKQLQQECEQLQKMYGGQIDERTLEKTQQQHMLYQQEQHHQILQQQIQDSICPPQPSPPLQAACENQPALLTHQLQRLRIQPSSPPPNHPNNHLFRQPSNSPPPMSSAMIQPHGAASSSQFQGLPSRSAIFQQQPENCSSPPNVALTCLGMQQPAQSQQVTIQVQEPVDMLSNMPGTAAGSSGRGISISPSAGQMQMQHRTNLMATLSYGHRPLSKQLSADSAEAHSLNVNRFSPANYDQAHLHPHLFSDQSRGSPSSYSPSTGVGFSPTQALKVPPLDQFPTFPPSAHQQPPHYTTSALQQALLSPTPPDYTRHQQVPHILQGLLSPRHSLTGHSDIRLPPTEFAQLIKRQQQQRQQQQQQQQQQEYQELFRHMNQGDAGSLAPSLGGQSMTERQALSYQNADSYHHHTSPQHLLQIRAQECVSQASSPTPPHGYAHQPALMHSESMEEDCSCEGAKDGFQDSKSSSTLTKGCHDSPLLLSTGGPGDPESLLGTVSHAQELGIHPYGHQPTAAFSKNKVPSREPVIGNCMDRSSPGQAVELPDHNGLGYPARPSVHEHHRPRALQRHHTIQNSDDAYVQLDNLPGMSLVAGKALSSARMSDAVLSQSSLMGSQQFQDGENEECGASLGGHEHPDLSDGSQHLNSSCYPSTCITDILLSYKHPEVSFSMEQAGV
Sequence of Ephrin type-A receptor 7 (Homo sapiens) (Q15375 28-998 limits assumed): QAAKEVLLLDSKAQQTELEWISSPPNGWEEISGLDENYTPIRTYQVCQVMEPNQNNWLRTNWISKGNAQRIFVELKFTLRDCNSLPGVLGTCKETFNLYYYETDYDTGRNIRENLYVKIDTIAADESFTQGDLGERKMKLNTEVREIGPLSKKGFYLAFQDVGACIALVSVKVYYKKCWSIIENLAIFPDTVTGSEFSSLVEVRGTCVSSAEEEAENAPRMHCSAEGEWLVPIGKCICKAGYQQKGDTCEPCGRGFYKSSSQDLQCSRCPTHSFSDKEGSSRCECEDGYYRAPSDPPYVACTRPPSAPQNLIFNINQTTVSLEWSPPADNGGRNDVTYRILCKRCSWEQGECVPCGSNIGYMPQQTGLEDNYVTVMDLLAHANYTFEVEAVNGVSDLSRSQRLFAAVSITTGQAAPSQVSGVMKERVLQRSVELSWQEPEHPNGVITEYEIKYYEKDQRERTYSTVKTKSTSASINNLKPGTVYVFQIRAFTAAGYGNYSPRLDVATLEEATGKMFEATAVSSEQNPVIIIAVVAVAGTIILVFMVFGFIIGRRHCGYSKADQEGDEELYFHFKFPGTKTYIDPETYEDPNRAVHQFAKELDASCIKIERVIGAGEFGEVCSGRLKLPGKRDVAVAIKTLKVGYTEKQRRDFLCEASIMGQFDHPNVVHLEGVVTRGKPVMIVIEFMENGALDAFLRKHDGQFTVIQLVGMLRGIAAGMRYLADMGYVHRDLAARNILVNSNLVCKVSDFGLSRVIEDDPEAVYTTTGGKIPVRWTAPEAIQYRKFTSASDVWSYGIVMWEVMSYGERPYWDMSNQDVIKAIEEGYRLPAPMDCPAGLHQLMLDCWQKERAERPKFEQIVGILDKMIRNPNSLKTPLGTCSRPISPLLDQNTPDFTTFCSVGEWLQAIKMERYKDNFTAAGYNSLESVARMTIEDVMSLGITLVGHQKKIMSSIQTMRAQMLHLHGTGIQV
Sequence of 5'-AMP-activated protein kinase catalytic subunit alpha-2 (Homo sapiens) (P54646 whole entry, looked up): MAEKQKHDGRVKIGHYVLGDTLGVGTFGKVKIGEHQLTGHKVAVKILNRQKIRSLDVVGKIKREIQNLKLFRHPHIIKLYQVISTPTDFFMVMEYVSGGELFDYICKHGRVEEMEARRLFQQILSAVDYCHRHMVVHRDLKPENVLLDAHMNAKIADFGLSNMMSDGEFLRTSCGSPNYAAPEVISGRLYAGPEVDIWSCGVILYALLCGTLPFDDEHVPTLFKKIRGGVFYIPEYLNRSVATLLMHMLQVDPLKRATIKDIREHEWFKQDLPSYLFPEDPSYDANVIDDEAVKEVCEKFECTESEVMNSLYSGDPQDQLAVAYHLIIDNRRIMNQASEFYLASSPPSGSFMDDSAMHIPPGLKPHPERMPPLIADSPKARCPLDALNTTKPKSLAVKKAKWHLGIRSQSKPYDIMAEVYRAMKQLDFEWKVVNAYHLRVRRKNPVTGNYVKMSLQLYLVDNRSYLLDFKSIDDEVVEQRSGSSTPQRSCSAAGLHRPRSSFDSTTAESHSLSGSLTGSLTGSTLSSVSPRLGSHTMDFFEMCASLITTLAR
Sequence of Phosphatidylinositol 4-phosphate 5-kinase type-1 alpha (Homo sapiens) (Q99755 whole entry): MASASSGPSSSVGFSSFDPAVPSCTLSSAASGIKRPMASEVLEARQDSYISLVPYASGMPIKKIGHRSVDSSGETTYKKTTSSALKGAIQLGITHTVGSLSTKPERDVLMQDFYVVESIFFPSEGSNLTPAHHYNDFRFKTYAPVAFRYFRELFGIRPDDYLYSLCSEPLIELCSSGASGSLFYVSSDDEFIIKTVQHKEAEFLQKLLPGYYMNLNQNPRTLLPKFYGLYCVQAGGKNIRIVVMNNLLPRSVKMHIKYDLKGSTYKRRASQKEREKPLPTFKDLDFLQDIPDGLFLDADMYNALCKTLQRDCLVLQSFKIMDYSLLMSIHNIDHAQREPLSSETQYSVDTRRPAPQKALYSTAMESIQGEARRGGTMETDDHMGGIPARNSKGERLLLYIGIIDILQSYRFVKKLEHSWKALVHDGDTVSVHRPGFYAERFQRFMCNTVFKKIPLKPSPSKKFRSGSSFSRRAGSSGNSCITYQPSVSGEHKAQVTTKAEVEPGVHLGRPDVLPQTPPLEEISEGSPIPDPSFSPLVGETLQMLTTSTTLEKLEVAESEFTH
Sequence of Serine/threonine-protein kinase 26 (Q9P289 2-416 limits assumed): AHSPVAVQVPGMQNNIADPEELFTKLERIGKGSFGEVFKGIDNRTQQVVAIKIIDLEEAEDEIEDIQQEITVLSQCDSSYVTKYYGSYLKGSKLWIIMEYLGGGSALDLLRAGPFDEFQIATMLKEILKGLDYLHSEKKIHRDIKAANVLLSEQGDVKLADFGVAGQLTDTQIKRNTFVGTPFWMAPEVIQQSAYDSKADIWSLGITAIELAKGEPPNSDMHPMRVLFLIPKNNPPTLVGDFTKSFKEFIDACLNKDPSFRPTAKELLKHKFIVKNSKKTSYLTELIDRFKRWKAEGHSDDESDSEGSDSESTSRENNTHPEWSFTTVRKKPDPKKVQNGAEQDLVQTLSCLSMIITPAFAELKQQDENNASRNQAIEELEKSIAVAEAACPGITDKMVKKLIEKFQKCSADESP

CC(=O)c1cc(-c2ccccc2OCC2CC2)c2ncccn12
% of control [1]: 94%

Nc1cnc(N2CCc3cc(S(=O)(=O)Nc4c(F)cc(Cl)cc4F)cc(N4CCCC4=O)c32)nc1 [TP-020n]
% of control [2]: 100%

CCN(CC)CCCCNc1ncc2cc(-c3cc(OC)cc(OC)c3)c(NC(=O)NC(C)(C)C)nc2n1
% of control [3]: 100%

Cc1cc(CN)cc(C)c1-c1ncn(C)c1-c1cncn1C
dTM [4]: -1.68 K

CC[C@@H]1[C@H](F)C(=O)N[C@@H]1COc1nccc2cc(C(N)=O)c(OC)cc12 [ZIMLOVISERTIB]
% of inhibition [5]: 21.8%
% of inhibition [6]: 6.26%

COCC(=O)NC/C=C/c1ccc2ncnc(Nc3ccc(Oc4ccc(C)nc4)c(C)c3)c2c1 [CP-724714]
% of control [7]: 100%

C=CC(=O)Nc1cc(-n2c(=O)ccc3cnc4ccc(-c5ccc(NS(C)(=O)=O)cc5)cc4c32)ccc1C
% of control ([8]; at 1 µM): 100%
% of control ([8]; at 10 µM): 100%

O[C@H]1CC[C@H](Nc2ncc3nc(Nc4c(F)cc(F)cc4F)n([C@H]4CCOC4)c3n2)CC1
% of control [9]: 90%

Cn1cc(-n2cnc3c(NCc4nc5cc(Cl)c(Cl)cc5[nH]4)nc(N4CCOCC4)nc32)cn1
% of inhibition [10]: -15.8%
